Measured values taken from the OligoGym collection.
Bases are written 5' to 3'; sugars and linkages follow in the same order, as letters with counts (s phosphorothioate, o phosphodiester; PS: all linkages phosphorothioate). The collection does not say whether C is 5-methylated. l = locked nucleic acid (LNA); d = 2'-deoxy (DNA)

biological target: Tau; experiment: rat primary cortical neurons, FLIPR, 25 uM ASO

Sequence | calcium oscillation score
CTCTTAGCATCCACTTA (sugars l3 d12 l2, PS) | 44.5 % of control
CTTTGCTTTTACTGACCATG (sugars l3 d14 l3, PS) | 0 % of control
ACTTTATTTCCAAATTCACTTTTAC (sugars l1 d1 l2 d18 l3, PS) | 23.6 % of control
TTCCCACAATTCCTACA (sugars l3 d12 l2, PS) | 73.4 % of control
ACATCTCTCTAGACAT (sugars l4 d9 l3, PS) | 59.5 % of control
GGCCACCTCCTGGTTTATGA (sugars l3 d14 l3, PS) | 0 % of control
TAGCAGAGGAACGTGT (sugars l3 d10 l3, PS) | 40.7 % of control
TCACTCATGCCTTAATC (sugars l4 d11 l2, PS) | 62 % of control
CACTGGCGACTTGTACACGA (sugars l3 d14 l3, PS) | 5.18 % of control
AAGAGGCACAAGTCCT (sugars l3 d10 l3, PS) | 81.6 % of control
TGGATATAGTTAAGGC (sugars l2 d11 l3, PS) | 95.2 % of control
CCAGCGTGATCTTCCATCAC (sugars l3 d14 l3, PS) | 112 % of control
AACTCATTTACCAATTATCT (sugars l4 d13 l3, PS) | 67.3 % of control
TCCTGGTTTATGATGGATGT (sugars l3 d14 l3, PS) | 5.81 % of control
CCATGTCGATGCTGCC (sugars l3 d10 l3, PS) | 55.1 % of control
ATTTCCAAATTCACTT (sugars l3 d10 l3, PS) | 111 % of control
TGTTGCCTAATGAGCC (sugars l3 d10 l3, PS) | 172 % of control
ATTTCCAAATTCACTTTTAC (sugars lldllddddddddddlldll, PS) | 85.2 % of control
CTACCATGTCGATG (sugars l3 d8 l3, PS) | 6.9 % of control
TCACTTTACACATTAAATTT (sugars l4 d12 l4, PS) | 62.5 % of control
TTTATTTCCAAATTCACTTT (sugars l2 d16 l2, PS) | 141 % of control
CTTTATTTCCAAATTCACTT (sugars l4 d13 l3, PS) | 121 % of control

Sequence | calcium oscillation score
CGAGTCTACCATGTCGATGC (sugars l3 d14 l3, PS) | 78.5 % of control
TGGCGGTGACTGCGA (sugars l3 d9 l3, PS) | 107 % of control
CAGCCTACTTTATTCCCT (sugars l2 d14 l2, PS) | 82.2 % of control
TTTTTCTTGTTCTAACCC (sugars l4 d12 l2, PS) | 56.1 % of control
ATATTTAGTTTTCCCAC (sugars l2 d11 l4, PS) | 42.4 % of control
CTTTTCTACTCTACTCTCAA (sugars l4 d14 l2, PS) | 67.6 % of control
GGACGTGGGTGATATTGTCC (sugars l3 d14 l3, PS) | 0 % of control
CTCAGCTAAGACCCTCAGGT (sugars l3 d14 l3, PS) | 31.2 % of control
AATAACATTAACCCTT (sugars l4 d8 l4, PS) | 72 % of control
CCAGATTCCCCAACTCAC (sugars l3 d13 l2, PS) | 89 % of control
AGGTTAAGTGATTAACCAAT (sugars l3 d14 l3, PS) | 115 % of control
ACTCTTTGAACACCCCA (sugars l2 d12 l3, PS) | 88.9 % of control
TAACTCTCCTTATCTGA (sugars l2 d11 l4, PS) | 29.7 % of control
TCAAACACACCTTCATTTAC (sugars l2 d14 l4, PS) | 82.2 % of control
ACTCTAAGTAGACCCTGGCC (sugars l3 d14 l3, PS) | 4.76 % of control
CTTCAGTCCTAATCCT (sugars l3 d10 l3, PS) | 95.8 % of control
GACTTGTACACGAT (sugars l3 d8 l3, PS) | 112 % of control
ATTTCCAAATTCACTTTTAC (sugars lldlldddddddddllddll, PS) | 120 % of control
CATGACATTTTAAACCC (sugars l3 d10 l4, PS) | 69.2 % of control
TCCATTAATTTAGCCA (sugars l4 d10 l2, PS) | 54.1 % of control
CTAATTACATTTTTTCTTT (sugars l4 d11 l4, PS) | 62.6 % of control
